We go through 1 molecule from paper PMC8329300, “X-ray crystallography reveals molecular recognition mechanism for sugar binding in a melibiose transporter MelB” (Communications Biology, 2021).

In the assay the target is T1, D59C MelBSt (Salmonella typhimurium, UniProt P30878, D59C).
T1 construct: Cys scanning mutagenesis for the full-length MelBSt; His10 (C); made in house; host or cells: E. coli DW2
The assay is described as follows: Trp→dansyl galactoside (D2G) FRET time trace and IC50 of D2G displacement (D59C). Format: binding. Conditions: IC50 of galactoside displacement on bound D2G, α-NPG, 10 μM D2G. As for the experimental part: Fig. 1 Functional characterizations. a [^3H] Melibiose transport time course with intact cells. […] Inset, melibiose fermentation assay. Transformants with DW2 strain were plated on MacConkey agar plates containing 30 mM melibiose as the sole carbohydrate source and pH sensor neutral red, and incubated at 37 °C for 16–18 h before imaging. Number of tests = 3, from different batch of cells or duplicate measurements from same batch of sample. b Ligand binding by Trp→dansyl galactoside (D^2G) FRET assay. Purified proteins at 1 μM concentration in 20 mM Tris-HCl, pH 7.5, 100 mM CholCl, 10% glycerol, and 0.03% UDM were subjected to steady-state fluorescence measurements as described in Methods. On the time-trace, 1.8 μL of 1 mM D^2G at 10 μM was added into 180 μL of protein solutions at 1-min point, followed by supplying 10 μL of 5 mM DDMB or 5 mM α-NPG to displace the bound D^2G. For testing Na^+ or Li^+ binding, they are added into the solution before displacement with the second sugar. The structure of DDMB or α-NPG is shown in a chair form, and the carbon positions are labeled. Glycosidic bonds are indicated by arrows. Both are α-galactosides containing a substituent at the anomeric carbon-1. The data were from duplicate measurements.
Steady-state fluorescence measurements were performed with an AMINCO-Bowman series 2 spectrometer with purified MelBSt at 1 μM in 20 mM Tris-HCl, pH 7.5, 100 mM CholCl, 10% glycerol, 0.03% UDM. Using an excitation wavelength at 290 nm, the emission intensity was recorded at 490 nm. On a time-trace, D^2G, NaCl or LiCl, then DDMB or α-NPG, were sequentially added into the protein solutions at a 1 min-interval. […] An identical volume of water was used for the control. The decrease in intensity after each addition of DDMB or α-NPG was corrected by the dilution effect and plotted as a function of the accumulated α-NPG concentrations or estimated DDMB concentrations. The 50% inhibitory concentration (IC50) was determined by fitting a hyperbolic function to the data (OriginPro 2020b). The final concentration of each detergent is estimated to be 234 μM, which is less than their CMC value for (DDMB, 295 μM).
Supplementary Figure 2. Determination of DDMB binding affinity to MelBSt. (a) Titration with DDMB or a-NPG. MelBSt in 20 mM Tris-HCl, pH 7.5, 100 mM CholCl, 10% glycerol, 0.03% UDM without (1) or with 100 mM NaCl (2) were added with D2G at 10 μM at 1-min time point as indicated by triangle symbols on the Trp®dansyl FRET time trace. Starting at the 2-min of time point, DDMB or a-NPG solution was supplemented consecutively at a 1-min interval into MelBSt solution till no change in fluorescence intensity reached as indicated in star symbols. DDM and UDM were used as negative controls. 1% DDM or UDM was titrated into the mixture, The […]
At 2-min time point, additions of galactosides were colored in pink, a-NPG in yellow, UDM in blue, DDM in light blue, water in gray traces, respectively. (b) IC50 determination. The intensity decrease at each titration were corrected by the dilution effect, and plotted as a function of the accumulated DDMB or α-NPG concentration. The 50% inhibitory concentration (IC50) was determined by fitting the data to a hyperbolic function (OriginPro 2020b). Results are presented in […]
(1 picture or pasted object on this page, not shown here)

Structures are written as SMILES.

T1 sequence (P30878 whole entry D59C): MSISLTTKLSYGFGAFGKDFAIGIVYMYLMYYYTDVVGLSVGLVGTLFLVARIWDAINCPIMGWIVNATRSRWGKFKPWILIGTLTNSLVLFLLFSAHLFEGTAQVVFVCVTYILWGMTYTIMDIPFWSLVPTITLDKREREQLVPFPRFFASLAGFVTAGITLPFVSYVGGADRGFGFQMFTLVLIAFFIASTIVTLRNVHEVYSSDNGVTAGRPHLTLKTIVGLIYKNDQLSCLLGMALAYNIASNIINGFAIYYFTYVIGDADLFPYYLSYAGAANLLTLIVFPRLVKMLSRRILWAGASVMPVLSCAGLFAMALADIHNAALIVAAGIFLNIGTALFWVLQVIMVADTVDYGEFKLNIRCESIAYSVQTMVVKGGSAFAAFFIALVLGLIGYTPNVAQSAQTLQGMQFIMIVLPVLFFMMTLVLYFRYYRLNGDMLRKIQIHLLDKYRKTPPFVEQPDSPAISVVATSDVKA

For orientation: IC50 means the concentration needed to halve the response being measured. A higher IC50 goes with weaker potency. As for `O=[N+]([O-])c1ccc(OC2OC(CO)C(O)C(O)C2O)cc1` [α-NPG, 4-nitrophenyl-α-D-galactopyranoside], the half-maximal inhibitory concentration (IC50) turned out to be 22.1 ± 5.75 µM (Apo) and 21.3 ± 1.67 µM (Na+ (100 mM)).
